Experimental data as given in patent US20020137929A1, “1 - (3-heterocyclylphenyl) isothiourea, -isourea, -guanidine and -amidine herbicidal agents” (Intellectual Property Department, BASF Aktiengesellschaft, priority 1998, published 2002).

Key:
[1] = system: AMBEL (Ragweed, Common); test: Postemergence herbicidal evaluation; type: in vivo, Ambrosia artemisifolia
Summary of the method: (§1)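 Compound is applied as a foliar spray to seedlings about two weeks old, formulated in equal parts acetone and water with 0.5% TWEEN 20 and delivered at 40 psi to give about 0.0156–0.500 kg per hectare. Injury is rated visually 0–9 after four to five weeks.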

[2] = system: CASOB (Sicklepod); test: Postemergence herbicidal evaluation; type: in vivo, Cassia obtusifolia
Summary of the method: as §1

[3] = system: GALAP (Galium); test: Postemergence herbicidal evaluation; type: in vivo, Galium aparine
Summary of the method: as §1

[4] = system: GLXMAW (Soybean, Williams); test: Postemergence herbicidal evaluation; type: in vivo, Glycine max, (L.) Merr. cv Williams
Summary of the method: as §1

[5] = system: TRZAWR (Wheat, Winter, cv Riband); test: Postemergence herbicidal evaluation; type: in vivo, Triticum aestivum
Summary of the method: as §1

[6] = system: GALAP (Galium); test: Preemergence herbicidal evaluation; type: in vivo, Galium aparine; conditions: rated 4-5 weeks after treatment
Summary of the method: (§2)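 Steps: mix seeds into potting soil; plant atop ~1 inch soil; spray compound in aqueous acetone (~0.0156-0.500 kg/ha equivalent); maintain in greenhouse with watering; rate visually 0-9 versus control at 4-5 weeks.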

[7] = system: SETVI (Foxtail, Green); test: Preemergence herbicidal evaluation; type: in vivo, Setaria viridis; conditions: rated 4-5 weeks after treatment
Summary of the method: as §2

[8] = system: ORYSAT (Rice, Tebonnet); test: Preemergence herbicidal evaluation; type: in vivo, Oryza sativa, (L.) Tebonnet; conditions: rated 4-5 weeks after treatment
Summary of the method: as §2

[9] = system: ECHORC (Watergrass (Calif.)); test: Preemergence weed control under flooded paddy conditions; type: in vivo, Echinochloa oryzoides; conditions: rated 3-4 weeks after treatment
Summary of the method: (§3)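 Visual injury scored 0-9 against control three to four weeks post-treatment, greenhouse-grown. Application: acetone/water (50/50) solutions dosed directly into flood water (1.5-3 cm over silt loam, planted top 0.5 cm), roughly 0.0313 to 0.500 kg/ha active ingredient.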

[10] = system: CYPSE (Flatsedge); test: as above; type: in vivo, Cyperus serotinus; conditions: rated 3-4 weeks after treatment
Summary of the method: as §3

[11] = system: MOOVA (Monochoria); test: as above; type: in vivo, Monochoria vaginalis; conditions: rated 3-4 weeks after treatment
Summary of the method: as §3

[12] = system: SAGPY (Arrowhead (Pygmaea)); test: as above; type: in vivo, Sagittaria pygmaea; conditions: rated 3-4 weeks after treatment
Summary of the method: as §3

[13] = system: ECHORC (Watergrass (Calif.)); test: Postemergence weed control under flooded paddy conditions; type: in vivo, Echinochloa oryzoides; conditions: postemergence weeds, rated 3 to 4 weeks after treatment
Summary of the method: (§4)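 Injury ratings (0–9 scale covering stand, vigor, malformation, size, chlorosis and overall appearance versus control) were made three to four weeks after treatment. Test material, about 0.0313 to 0.500 kg/ha a.i. in 50/50 v/v aqueous/acetone, was added to flood water 1.5 to 3 cm deep over 3 to 5 cm weeds and 1.5 to 2.5 leaf rice.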

[14] = system: SAGPY (Arrowhead (Pygmaea)); test: as above; type: in vivo, Sagittaria pygmaea; conditions: postemergence weeds, rated 3 to 4 weeks after treatment
Summary of the method: as §4

With `CN1C(=O)C(CC(=O)O)SC1=Nc1cc(-n2c(=O)cc(C(F)(F)F)n(C)c2=O)c(F)cc1Cl` (stereo not drawn) [Compound 63, 2-{{2-Chloro-5-[3,6-dihydro-3-methyl-2,6-dioxo-4-(trifluoromethyl)-1(2H)-pyrimidinyl]-4-fluoro-phenyl}imino}-3-methyl-4-oxo-5-thiazolidineacetic acid] the “Postemergence herbicidal rating AMBEL” value ([1]; Rate 0.0158 kg/ha) was 6.0, the “Postemergence herbicidal rating AMBEL” value ([1]; Rate 0.0315 kg/ha) was 6.0 and the “Postemergence herbicidal rating AMBEL” value ([1]; Rate 0.0630 kg/ha) was 9.0. The “Postemergence herbicidal rating CASOB” value ([2]; Rate 0.0158 kg/ha) was 0.0, the “Postemergence herbicidal rating CASOB” value ([2]; Rate 0.0315 kg/ha) was 3.0 and the “Postemergence herbicidal rating CASOB” value ([2]; Rate 0.0630 kg/ha) was 5.0. For the same compound, the “Postemergence herbicidal rating GALAP” value ([3]; Rate 0.0158 kg/ha) was 1.0, the “Postemergence herbicidal rating GALAP” value ([3]; Rate 0.0315 kg/ha) was 6.0 and the “Postemergence herbicidal rating GALAP” value ([3]; Rate 0.0630 kg/ha) was 7.0. The “Postemergence herbicidal rating GLXMAW” value ([4]; Rate 0.0158 kg/ha) was 6.5, the “Postemergence herbicidal rating GLXMAW” value ([4]; Rate 0.0315 kg/ha) was 8.5 and the “Postemergence herbicidal rating GLXMAW” value ([4]; Rate 0.0630 kg/ha) was 7.5. For the same compound, the “Postemergence herbicidal rating TRZAWR” value ([5]; Rate 0.0158 kg/ha) was 5.5, the “Postemergence herbicidal rating TRZAWR” value ([5]; Rate 0.0315 kg/ha) was 6.0 and the “Postemergence herbicidal rating TRZAWR” value ([5]; Rate 0.0630 kg/ha) was 7.0. The “Preemergence herbicidal rating GALAP” value ([6]; rate 0.0156 kg/ha) was 0.0, the “Preemergence herbicidal rating GALAP” value ([6]; rate 0.0313 kg/ha) was 0.0 and the “Preemergence herbicidal rating GALAP” value ([6]; rate 0.0625 kg/ha) was 0.0. For the same compound, the “Preemergence herbicidal rating GALAP” value ([6]; rate 0.1250 kg/ha) was 9.0, the “Preemergence herbicidal rating GALAP” value ([6]; rate 0.2500 kg/ha) was 9.0 and the “Preemergence herbicidal rating SETVI” value ([7]; rate 0.0156 kg/ha) was 0.0. For the same compound, the “Preemergence herbicidal rating SETVI” value ([7]; rate 0.0313 kg/ha) was 0.0, the “Preemergence herbicidal rating SETVI” value ([7]; rate 0.0625 kg/ha) was 1.0 and the “Preemergence herbicidal rating SETVI” value ([7]; rate 0.1250 kg/ha) was 9.0. For the same compound, the “Preemergence herbicidal rating SETVI” value ([7]; rate 0.2500 kg/ha) was 9.0, the “Preemergence herbicidal rating ORYSAT” value ([8]; rate 0.0156 kg/ha) was 0.0 and the “Preemergence herbicidal rating ORYSAT” value ([8]; rate 0.0313 kg/ha) was 0.0. The “Preemergence herbicidal rating ORYSAT” value ([8]; rate 0.0625 kg/ha) was 5.0, the “Preemergence herbicidal rating ORYSAT” value ([8]; rate 0.1250 kg/ha) was 7.0 and the “Preemergence herbicidal rating ORYSAT” value ([8]; rate 0.2500 kg/ha) was 7.0. The “ECHORC herbicidal effect rating” value ([9]; 0.0313 kg/ha) was 0.0, the “ECHORC herbicidal effect rating” value ([9]; 0.0625 kg/ha) was 0.0 and the “ECHORC herbicidal effect rating” value ([9]; 0.1250 kg/ha) was 5.0. For the same compound, the “ECHORC herbicidal effect rating” value ([9]; 0.2500 kg/ha) was 5.0, the “CYPSE herbicidal effect rating” value ([10]; 0.0313 kg/ha) was 0.0 and the “CYPSE herbicidal effect rating” value ([10]; 0.0625 kg/ha) was 0.0. The “CYPSE herbicidal effect rating” value ([10]; 0.1250 kg/ha) was 0.0, the “CYPSE herbicidal effect rating” value ([10]; 0.2500 kg/ha) was 0.0 and the “MOOVA herbicidal effect rating” value ([11]; 0.0313 kg/ha) was 9.0. The “MOOVA herbicidal effect rating” value ([11]; 0.0625 kg/ha) was 9.0, the “MOOVA herbicidal effect rating” value ([11]; 0.1250 kg/ha) was 9.0 and the “MOOVA herbicidal effect rating” value ([11]; 0.2500 kg/ha) was 9.0. For the same compound, the “SAGPY herbicidal effect rating” value ([12]; 0.0313 kg/ha) was 4.0, the “SAGPY herbicidal effect rating” value ([12]; 0.0625 kg/ha) was 7.0 and the “SAGPY herbicidal effect rating” value ([12]; 0.1250 kg/ha) was 9.0. The “SAGPY herbicidal effect rating” value ([12]; 0.2500 kg/ha) was 9.0, the “Herbicidal rating ECHORC” value ([13]; Rate 0.0313 kg/ha) was 0.0 and the “Herbicidal rating ECHORC” value ([13]; Rate 0.0625 kg/ha) was 0.0. For the same compound, the “Herbicidal rating ECHORC” value ([13]; Rate 0.1250 kg/ha) was 5.0, the “Herbicidal rating ECHORC” value ([13]; Rate 0.2500 kg/ha) was 5.0 and the “Herbicidal rating SAGPY” value ([14]; Rate 0.0313 kg/ha) was 4.0. For the same compound, the “Herbicidal rating SAGPY” value ([14]; Rate 0.0625 kg/ha) was 7.0, the “Herbicidal rating SAGPY” value ([14]; Rate 0.1250 kg/ha) was 9.0 and the “Herbicidal rating SAGPY” value ([14]; Rate 0.2500 kg/ha) was 9.0.
